Where two headings read alike, the source gives them in different places. Where no end group is shown, it is not given here.

In one data set the test system is TDP43 model. In words: Thymalfasin in the TDP43 (Prp-TDP43^A315T) ALS mouse model. It is filed as in vivo. The text has this:
(§1) In mice, thymalfasin is metabolized to the active molecule thymopentin. Because mice process the pro-molecule thymalfasin into thymopentin as do humans, thymalfasin may illuminate the effects of thymopentin by increasing target engagement afforded by the pro-molecule.

Another data set concerns SOD1^G93A model. In words: Thymalfasin in the SOD1^G93A ALS mouse model. The format is in vivo.
Source text: as §1

The test system of a further data set is renal dialysis patients. Particulars: cited from earlier work.
The conditions of data set [1]: in vivo; cited from earlier work.
The conditions of data set [2]: also when given with other drugs; cited from earlier work.
Data set [3] in a line: Pharmacokinetics in mice dosed IV, SC and PO. The following applies: mouse, in vivo, mice. It is filed as in vivo, mouse.
The next data set can be described thus: Mouse plasma stability. The format is in vitro ADME. Particulars: read-out: Mouse Plasma Stability t½.
Data set [4] is described as follows: Mouse (liver) microsomal stability. It is filed as in vitro ADME. The following applies: mouse, liver microsomes.

Turning to “thymalfasin: thymosin α (Tα1), 28 amino acids, commercially available as ZADAXIN; pro-molecule metabolized to thymopentin (Ac-SDAAVDTSSEITTKDLKEKKEVVEEAEN; UniProt P06454 2-29, looked up)”, the “growth and strength (based on wire hang tests)” value in the data set on TDP43 model (TDP-43 mouse model) is listed as “improvement”. In addition, in the data set with TDP43 model (TDP-43 mouse model, one cohort), the disease phenotype result is on record as “prevented in one cohort”. The “Iba1 and brain GFAP, measures of inflammation” value in the data set with TDP43 model (treated mice) was “Statistically-significant reduction”. The “ubiquitin in brain tissue and spinal cord on histopathology” value in the data set with SOD1^G93A model is listed as “statistically-significant reduction”.
As to “RKDVY [TP-5, Arg-Lys-Asp-Val-Tyr, reference compound]”, the “IL-6, IL-8, TNF and CRP” value in the data set with renal dialysis patients was “reduced”. Also, the “superoxide dismutase (SOD), state of oxidative stress” value with renal dialysis patients is recorded as “increasing”. For the same substance, in data set [1], the “half-life of exogenous thymopentin” value is listed as “seconds”. Also, the safety / tolerability entry in data set [2] was “well tolerated”. Besides, the half-life in data set [3] (IV, read-out: IV t½, mice) was 5.58 min; in data set [3] (PO, read-out: PO t½, mice), 7.72 min; in data set [3] (SC, read-out: SC t½, mice) it was 8.92 min; in “Mouse plasma stability” it was 23.1 min; in data set [4] (mouse liver microsomes, read-out: stability in mouse liver microsomes, half-life), 23.1 min; in data set [4] (mouse microsomes, read-out: Mouse Microsomal Stability t½), greater than 60 min. Moreover, the bioavailability was 36% in data set [3] (PO, read-out: PO % F, mice) and 39% in data set [3] (SC, read-out: SC % F, mice). The AUC(0-inf) in data set [3] (PO, read-out: PO AUCinf) worked out at 1270 ng·h/mL; in data set [3] (SC, read-out: SC AUCinf), 126 ng·h/mL. The Cmax (usually the highest concentration seen after dosing) in data set [3] (PO, read-out: PO Cmax) worked out at 1370 ng/mL; in data set [3] (SC, read-out: SC Cmax) it was 133 ng/mL.

(Values after US11975051B1, “Therapeutic peptides and uses thereof” (priority 2022, dated 2024).)
